We go through 13 molecules from US12296053B2, “Nanomaterials comprising triols” (Beam Therapeutics Inc., priority 2022, dated 2025).

Structures are written as SMILES.

Data set [1] is described as follows: Encapsulation efficiency of LNP preparations (Ribogreen assay; Qubit, unlysed and lysed LNPs). It counts as physicochemical. The conditions noted are these: LNP preparation with the ionizable lipid, ABE mRNA:sgRNA 1:1, except 7-1, 7-2, 7-6, 7-10 (unlysed and lysed LNPs, Qubit). How it is done: (§1) Lipid nanoparticle components were dissolved in 100% ethanol at specified lipid component molar ratios. mRNA encoding an adenine base editor and a chemically-modified sgRNA was dissolved at a mass ratio of 1:1 in 50 mM citrate, pH 4.0, resulting in a concentration of NA cargo of approximately 0.1 mg/mL.
(§2) LNP preparations were formulated with molar ratios of 47.5% Ionizable Lipid: 40% Cholesterol: 2.5% PEG2000-DMG: 10% DSPC total lipid to NA molar ratio of 6 to 12.
(§3) LNP preparations were formed by microfluidic mixing of the lipid and NA solutions using Precision Nanosystems NanoAssemblr Ignite series Instruments, according to the manufacturer's protocol.
With the exception of LNPs comprising ionizable lipids 7-1, 7-2, 7-6, and 7-10, RNA concentration and encapsulation efficiency were determined by Ribogreen assay (BioTek Synergy LX plate reader). For LNPs comprising ionizable lipids 7-1, 7-2, 7-6, and 7-10, RNA concentration was determined by Qubit microRNA kit (for siRNA) or HS RNA kit (for mRNA) per manufacturer's instructions, and encapsulation efficiency was determined by measuring unlysed and lysed LNPs.

Data set [2] deals with ALAS1 target site. The data set is described as follows: Base editing in liver by LNP-delivered ABE mRNA and sgRNA, targeted deep sequencing. It counts as in vivo. The following applies: LNP with the ionizable lipid, ABE mRNA + sgRNA targeting ALAS1 1:1; tail vein injection, Balb/c mice; 0.05 mg/kg; tissues four to six days post-dose. As to the method: as §1, §2, §3
(§4) A 3:1 ratio of aqueous to organic solvent was maintained during mixing using differential flow rates. After mixing, LNP preparations were collected and diluted in TBS (approximately 7:1 v/v), and further buffer exchange was conducted using dialysis in TBS at 4° C. for 8 to 24 hours against a 20 kDa filter. After this initial dialysis, each individual LNP preparation was characterized via dynamic light scattering (DLS) to measure size and polydispersity. pKa of a subpopulation of LNP preparations was measured via TNS assay.
Male Balb/C mice aged approximately 8-12 weeks were used in the experiments described herein. […]
Age-matched mice were also used to administer vehicle (1×TBS) via tail vein injection as a control. Four to six days post-dose, tissues including liver, spleen, and bone marrow were collected. Base editing was determined by performing targeted deep sequencing analysis at the ALAS1 target site using extracted genomic DNA. Genomic DNA was isolated and fragmented and adapter-ligated using the Nextera DNA Flex Library Prep Kit (Illumina) using the 96-well plate Nextera indexing primers (Illumina), according to the manufacturer's instructions. Library size and concentration was confirmed by Fragment Analyzer (Agilent) and analyzed for whole genome sequencing using an Illumina HiSeq.

Data set [3] in a line: LNP hydrodynamic diameter and polydispersity index by dynamic light scattering (DLS). In kind it is physicochemical. The conditions noted are these: for Diameter (nm): hydrodynamic diameter of the LNP preparation with the ionizable lipid; for PDI: polydispersity index of the LNP preparation with the ionizable lipid. How it is done:
as §4
DLS-LNP preparation hydrodynamic diameter and polydispersity index (PDI) was measured using high throughput dynamic light scattering (DLS) (DynaPro plate reader II, Wyatt). LNP preparations were diluted 1×PBS to an appropriate concentration and analyzed.

Turning to `CC/C=C\CCCCOC(CCC(=O)OCC(COC(=O)CCCCCCOC(=O)C(CCCC)CCCCCC)COC(=O)CCC(CCCCCC)OC(=O)OCC1CCCN(CC)C1)OCCCC/C=C\CC` (stereo not shown) [Compound 7-46, 3-((4,4-bis(((Z)-oct-5-en-1-yl)oxy)butanoyl)oxy)-2-(((7-((2-butyloctanoyl)oxy)heptanoyl)oxy)methyl)propyl 4-((((1-ethylpiperidin-3-yl)methoxy)carbonyl)oxy)decanoate], the “Encapsulation Efficiency (%)” value in data set [1] is listed as 93.7%. Moreover, the “% Editing in Liver (0.05 mpk)” value in data set [2] came out at 1.1%. For the same molecule, in data set [3], the “Diameter (nm)” value turned out to be 82.35 nm and the PDI stood at 0.13.
Turning to `CC/C=C\CCCCOC(CCC(=O)OCC(COC(=O)CCCCCC(=O)OC(CCCCCCC)CCCCCCC)COC(=O)CCC(CCCCCC)OC(=O)NCCN1CCCC1)OCCCC/C=C\CC` (stereo not shown) [Compound 7-36, 1-(3-((4,4-bis(((Z)-oct-5-en-1-yl)oxy)butanoyl)oxy)-2-(((4-(((2-(pyrrolidin-1-yl)ethyl)carbamoyl)oxy)decanoyl)oxy)methyl)propyl) 7-(pentadecan-8-yl) heptanedioate], the “Encapsulation Efficiency (%)” value in data set [1] worked out at 98.2%. For the same molecule, the “% Editing in Liver (0.05 mpk)” value in data set [2] came to 1.5%. Besides, in data set [3], the “Diameter (nm)” value amounted to 53.80 nm and the PDI is listed as 0.04.
Taken in the same sequence, the figures for `CC/C=C\CCCCOC(CCC(=O)OCC(COC(=O)CCCCCCC(=O)OCCC(CCCCC)CCCCC)COC(=O)CCC(CCCCCC)OC(=O)NCCN1CCCC1)OCCCC/C=C\CC` (stereo not shown) [Compound 7-19, 1-(3-((4,4-bis(((Z)-oct-5-en-1-yl)oxy)butanoyl)oxy)-2-(((4-(((2-(pyrrolidin-1-yl)ethyl)carbamoyl)oxy)decanoyl)oxy)methyl)propyl) 8-(3-pentyloctyl) octanedioate] were 97.2%, 1.7%, 54.15 nm and 0.12.
For `CC/C=C\CCCCOC(CCC(=O)OCC(COC(=O)CCCCCC(=O)OCCC(CCCCC)CCCCC)COC(=O)CCC(CCCCCC)OC(=O)NCCN1CCCC1)OCCCC/C=C\CC` (stereo not shown) [Compound 7-13, 1-(3-((4,4-bis(((Z)-oct-5-en-1-yl)oxy)butanoyl)oxy)-2-(((4-(((2-(pyrrolidin-1-yl)ethyl)carbamoyl)oxy)decanoyl)oxy)methyl)propyl) 7-(3-pentyloctyl) heptanedioate], in that order: 97.3%, 2.2%, 52.45 nm and 0.04.
For `CC/C=C\CCCCOC(CCC(=O)OCC(COC(=O)CCCCCCOC(=O)C(CCCC)CCCCCC)COC(=O)CCC(CCCCCC)OC(=O)NCCN(CC)CC)OCCCC/C=C\CC` (stereo not shown) [Compound 7-41, 3-((4,4-bis(((Z)-oct-5-en-1-yl)oxy)butanoyl)oxy)-2-(((7-((2-butyloctanoyl)oxy)heptanoyl)oxy)methyl)propyl 4-(((2-(diethylamino)ethyl)carbamoyl)oxy)decanoate], in that order: 95.9%, 4.5%, 59.05 nm and 0.06.
`CC/C=C\CCCCOC(CCC(=O)OCC(COC(=O)CCCCCCC(=O)OCCC(CCCC)CCCC)COC(=O)CCC(CCCCCC)OC(=O)NCCN1CCCC1)OCCCC/C=C\CC` (stereo not shown) [Compound 7-18, 1-(3-((4,4-bis(((Z)-oct-5-en-1-yl)oxy)butanoyl)oxy)-2-(((4-(((2-(pyrrolidin-1-yl)ethyl)carbamoyl)oxy)decanoyl)oxy)methyl)propyl) 8-(3-butylheptyl) octanedioate]: in data set [1], the “Encapsulation Efficiency (%)” value amounted to 96.1%. For the same molecule, in data set [2], the “% Editing in Liver (0.05 mpk)” value stood at 3.3%. In addition, in data set [3], the “Diameter (nm)” value was 55.60 nm and the PDI is on record as 0.08.
Taken in the same sequence, the figures for `C=CCCCCCC(CCCCCC=C)OC(=O)CCCCCC(=O)OCC(COC(=O)CCC(CCCCCC)OC(=O)NCCN1CCCC1)COC(=O)CCC(OCCCC/C=C\CC)OCCCC/C=C\CC` (stereo not shown) [Compound 7-34, 1-(3-((4,4-bis(((Z)-oct-5-en-1-yl)oxy)butanoyl)oxy)-2-(((4-(((2-(pyrrolidin-1-yl)ethyl)carbamoyl)oxy)decanoyl)oxy)methyl)propyl) 7-(pentadeca-1,14-dien-8-yl) heptanedioate] were 98.1%, 1.6%, 54.35 nm and 0.05.
Take `CC/C=C\CCCCOC(CCC(=O)OCC(COC(=O)CCCCCCOC(=O)C(CCCC)CCCCCC)COC(=O)CCC(C)OC(=O)NCCN1CCCC1)OCCCC/C=C\CC` (stereo not shown) [Compound 7-28, 12-(((4,4-bis(((Z)-oct-5-en-1-yl)oxy)butanoyl)oxy)methyl)-6-methyl-4,9,15-trioxo-1-(pyrrolidin-1-yl)-5,10,14-trioxa-3-azahenicosan-21-yl 2-butyloctanoate]: in data set [1], the “Encapsulation Efficiency (%)” value is given as 99.2%. For the same molecule, in data set [3], the “Diameter (nm)” value stood at 74.80 nm and the PDI came to 0.09.
Taken in the same sequence, the figures for `CC/C=C\CCCCOC(CCC(=O)OCC(COC(=O)CCCCCCC/C=C\C/C=C\CCCCC)COC(=O)OCC(CCCCCC)OC(=O)NCCN1CCCC1)OCCCC/C=C\CC` (stereo not shown) [Compound 7-5, 12-(((4,4-bis(((Z)-oct-5-en-1-yl)oxy)butanoyl)oxy)methyl)-6-hexyl-4,9-dioxo-1-(pyrrolidin-1-yl)-5,8,10-trioxa-3-azatridecan-13-yl (9Z,12Z)-octadeca-9,12-dienoate] were 87.2%, 78.39 nm and 0.09.
For `CC/C=C\CCCCOC(CCC(=O)OCC(COC(=O)CCCCCCOC(=O)C(CCCC)CCCCCC)COC(=O)CCC(CC)OC(=O)NCCN1CCCC1)OCCCC/C=C\CC` (stereo not shown) [Compound 7-20, 12-(((4,4-bis(((Z)-oct-5-en-1-yl)oxy)butanoyl)oxy)methyl)-6-ethyl-4,9,15-trioxo-1-(pyrrolidin-1-yl)-5,10,14-trioxa-3-azahenicosan-21-yl 2-butyloctanoate], in that order: 99.4%, 84.26 nm and 0.06.
For `CCCCC/C=C\C/C=C\CCCCCCCC(=O)OCC(COC(=O)CCC(CCCCCC)OC(=O)NCCN1CCCC1)COC(=O)CCC(OCCCCCCCC)OCCCCCCCC` (stereo not shown) [Compound 7-1, 3-((4,4-bis(octyloxy)butanoyl)oxy)-2-(((4-(((2-(pyrrolidin-1-yl)ethyl)carbamoyl)oxy)decanoyl)oxy)methyl)propyl (9Z,12Z)-octadeca-9,12-dienoate], in that order: 97.5%, 64.70 nm and 0.14.
Consider `CC/C=C\CCCCOC(CCC(=O)OCC(COC(=O)CCCCCCC/C=C\C/C=C\CCCCC)COC(=O)CCC(CCCCCC)OC(=O)OCCCN(C)C)OCCCC/C=C\CC` (stereo not shown) [Compound 7-3, 15-(((4,4-bis(((Z)-oct-5-en-1-yl)oxy)butanoyl)oxy)methyl)-9-hexyl-2-methyl-7,12-dioxo-6,8,13-trioxa-2-azahexadecan-16-yl (9Z,12Z)-octadeca-9,12-dienoate], for which the “Encapsulation Efficiency (%)” value in data set [1] turned out to be 19.8%. Also, in data set [3], the “Diameter (nm)” value was found to be 85.72 nm and the PDI was 0.72.
As to `CC/C=C\CCCCOC(CCC(=O)OCC(COC(=O)CCCCCCCOC(=O)C(CCCC)CCCCCC)COC(=O)CCC(CCCCCC)OC(=O)NCCN1CCCC1)OCCCC/C=C\CC` (stereo not shown) [Compound 7-6, 3-((4,4-bis(((Z)-oct-5-en-1-yl)oxy)butanoyl)oxy)-2-(((8-((2-butyloctanoyl)oxy)octanoyl)oxy)methyl)propyl 4-(((2-(pyrrolidin-1-yl)ethyl)carbamoyl)oxy)decanoate], the “Encapsulation Efficiency (%)” value in data set [1] is 91.3%. Also, in data set [3], the “Diameter (nm)” value turned out to be 85.01 nm and the PDI amounted to 0.08.
